Reference: patent US20070270393A1, “Methods and compositions for modulation of sleep cycle” (priority 2006, published 2007)

Tests used:
[1] = molecular target: T1, glucocorticoid (GR) receptors (Homo sapiens, UniProt P04150); conditions: literature; cited from earlier work
T1 sequence (P04150 1-777): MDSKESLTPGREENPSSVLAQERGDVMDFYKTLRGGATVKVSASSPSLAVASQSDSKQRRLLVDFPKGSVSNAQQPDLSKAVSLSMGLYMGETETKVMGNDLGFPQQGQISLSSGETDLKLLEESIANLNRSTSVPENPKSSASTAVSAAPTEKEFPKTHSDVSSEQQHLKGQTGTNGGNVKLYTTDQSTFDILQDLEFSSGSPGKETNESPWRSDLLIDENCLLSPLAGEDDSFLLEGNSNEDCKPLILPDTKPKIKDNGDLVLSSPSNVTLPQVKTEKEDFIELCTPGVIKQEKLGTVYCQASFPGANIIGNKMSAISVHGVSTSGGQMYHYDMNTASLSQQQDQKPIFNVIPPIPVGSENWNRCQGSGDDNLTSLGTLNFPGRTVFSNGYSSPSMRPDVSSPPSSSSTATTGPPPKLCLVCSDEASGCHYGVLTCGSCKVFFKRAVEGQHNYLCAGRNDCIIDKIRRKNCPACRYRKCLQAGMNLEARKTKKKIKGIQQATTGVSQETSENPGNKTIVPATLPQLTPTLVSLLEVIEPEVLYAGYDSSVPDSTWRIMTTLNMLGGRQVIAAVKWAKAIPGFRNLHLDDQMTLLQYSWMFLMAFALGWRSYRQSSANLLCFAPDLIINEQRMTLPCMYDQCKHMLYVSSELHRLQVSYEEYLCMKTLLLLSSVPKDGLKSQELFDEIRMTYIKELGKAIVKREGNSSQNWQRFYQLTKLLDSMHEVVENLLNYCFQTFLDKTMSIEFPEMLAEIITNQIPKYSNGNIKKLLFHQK

[2] = one study, Kawai (1989); cited from earlier work
progesterone receptors = molecular target: T2, progesterone receptors (Homo sapiens, UniProt P06401); conditions: literature; cited from earlier work
T2 sequence (P06401 1-933): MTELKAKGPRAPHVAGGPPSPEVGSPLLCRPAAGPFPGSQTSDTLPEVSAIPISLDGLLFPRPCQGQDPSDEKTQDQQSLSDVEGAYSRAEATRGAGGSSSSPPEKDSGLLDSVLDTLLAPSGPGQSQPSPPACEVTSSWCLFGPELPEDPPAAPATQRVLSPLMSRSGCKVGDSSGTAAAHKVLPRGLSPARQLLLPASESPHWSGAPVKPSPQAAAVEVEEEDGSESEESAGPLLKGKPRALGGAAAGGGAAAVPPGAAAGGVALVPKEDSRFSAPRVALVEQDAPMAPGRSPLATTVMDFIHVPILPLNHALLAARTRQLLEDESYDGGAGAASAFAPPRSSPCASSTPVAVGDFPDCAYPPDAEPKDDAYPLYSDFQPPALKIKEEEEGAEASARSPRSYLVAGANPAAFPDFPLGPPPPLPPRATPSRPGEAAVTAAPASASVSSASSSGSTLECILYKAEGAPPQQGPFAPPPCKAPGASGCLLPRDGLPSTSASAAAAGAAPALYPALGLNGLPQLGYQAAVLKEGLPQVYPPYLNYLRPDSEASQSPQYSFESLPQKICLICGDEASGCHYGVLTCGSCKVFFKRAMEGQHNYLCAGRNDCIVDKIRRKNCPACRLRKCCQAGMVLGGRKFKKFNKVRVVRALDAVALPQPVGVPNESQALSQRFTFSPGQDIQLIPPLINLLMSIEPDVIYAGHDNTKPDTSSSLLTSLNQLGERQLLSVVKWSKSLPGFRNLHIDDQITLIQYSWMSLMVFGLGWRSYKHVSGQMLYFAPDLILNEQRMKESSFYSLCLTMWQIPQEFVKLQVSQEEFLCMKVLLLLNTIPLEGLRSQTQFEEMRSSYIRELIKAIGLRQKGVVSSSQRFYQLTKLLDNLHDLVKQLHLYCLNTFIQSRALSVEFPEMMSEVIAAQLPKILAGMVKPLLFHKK

healthy male = conditions: given in the afternoon, Wiedemann 1992; cited from earlier work
subjects with insomnia = experiment: Actigraphy measures of TST and WASO, outpatient portion of the insomnia study; format: in vivo, human; conditions: Tx (n = 2)

For `CC#C[C@]1(O)CC[C@H]2[C@@H]3CCC4=CC(=O)CCC4=C3[C@@H](c3ccc(N(C)C)cc3)C[C@@]21C` [mifepristone, 17-beta-hydroxy-11-beta-(4-dimethyl-aminophenyl)-17-alpha-(1-propynyl)-estra-4,9-dien-3-one], the “antagonist of glucocorticoid (GR) receptors” value [1] is listed as “powerful antagonist”, the “excreted in the urine” value [2] is listed as “less than 0.5 % of the daily dose” and the “antagonist of progesterone receptors” value (progesterone receptors) is listed as “powerful antagonist”. For the same molecule, the effect on sleep (healthy male) was “significant worsening of sleep”, the “D7AV-smin (actigraphy TST)” value (subjects with insomnia; D7AV) was 458.86 min and the “D7AV-waso (actigraphy WASO)” value (subjects with insomnia; D7AV) was 45.14. The “D20AV-smin (actigraphy TST)” value (subjects with insomnia; D20AV) was 448.40 min, the “D20AV-waso (actigraphy WASO)” value (subjects with insomnia; D20AV) was 51.70 and the “D26AV-smin (actigraphy TST)” value (subjects with insomnia; D26AV) was 473.08 min. The “D26AV-waso (actigraphy WASO)” value (subjects with insomnia; D26AV) was 31.67.
